Experimental data as given in the NIST ThermoML archive (doi:10.1016/j.tca.2016.09.014).
± gives the expanded uncertainty stated by the source.

Experiments:
[1] = Molar enthalpy of transition or fusion; conditions: Crystal; DSC
[2] = Crystal; DTA

Row | Molar enthalpy of transition or fusion [1] | Normal melting temperature [2] | SMILES
1 | 15.8 ± 0.43 kcal/mol | 41.27 ± 5 °C | CCCCCCCCCCCCCCCCOC(=O)CCCCCCCCCCCCCCC [cetyl palmitate]
2 | 9.22 ± 0.263 kcal/mol | 211.78 ± 5 °C | O=C(O)c1cc(-c2ccc(F)cc2F)ccc1O [2',4'-difluoro-4-hydroxy-1,1'-biphenyl-3-carboxylic acid]
3 | 12.1 ± 0.335 kcal/mol |  | CCCCCCCCCCCCCCCCCC(=O)O [octadecanoic acid]
